Measurements reported in publication PMC3608651, “A Broad Profile of Co-Dominant Epitopes Shapes the Peripheral Mycobacterium tuberculosis Specific CD8+ T-Cell Immune Response in South African Patients with Active Tuberculosis” (PLoS ONE, 2013).
Where two headings read alike, the source gives them in different places.

Experiments:
Type in all cases: binding
[1] = target: T1, HLA-A*30:02 (Homo sapiens, UniProt P04439, D101N/D140H/D185E/E176R/F33S/G80R/H175R/K168Q/Q94H/R138E/R41S/V100E); conditions: time points 0-8 h
[2] = target: HLA-C*07:01 (Homo sapiens, UniProt P10321, K90N/S123Y); conditions: duplicated experiments, positive binder >40%
[3] = target: T1, HLA-A*30:02
[4] = target: HLA-B*07:02 (Homo sapiens, UniProt P01889); conditions: percent relative the binding of positive control peptide […]; duplicated experiments; positive binder >40%
[5] = target: T2, HLA-A*02:01 (Homo sapiens, UniProt P04439, D140Y/D185E/D98H/E176V/E277Q/G131W/G231S/I119V/I121R/I166T/I218V/L300P/L318F/N151K/N90K/P208A/P217A/Q86G/Q94H/R138H/R169H/T345S); conditions: peptide quantity for 50% binding saturation
[6] = target: T2, HLA-A*02:01; conditions: plate-bound monomer 0.5 µg/ml, duplicated experiments, positive binder >40%
[7] = target: T3, HLA-B*58:01 (Homo sapiens, UniProt P01889, A329T/C349S/D201E/D98Y/E176V/E187L/E204Q/E69T/G107R/I218V/I90N/K202T/L105A/L119I/N104I/N87E/Q89R/Q94S/R106L/R155S/R180L/R86G/S101N/S121R/S35A/S48A/T118I/V127L/V306I/V36M/Y140S/Y91M); conditions: duplicated experiments, positive binder >40%
[8] = target: T2, HLA-A*02:01; conditions: time points 0-8 h; time when 50% of peptide has dissociated
[9] = target: HLA-A*30:01 (Homo sapiens, UniProt P04439, D140H/D185E/E176W/F33S/G80R/H175R/K168Q/R138E/R41S); conditions: duplicated experiments, positive binder >40%
[10] = target: T1, HLA-A*30:02; conditions: duplicated experiments, positive binder >40%
[11] = target: T4, HLA-A*68:01 (Homo sapiens, UniProt P04439, A269V/D185E/E176V/E277Q/E87N/F33Y/G231S/I121M/I166T/I218V/L180W/L300P/L318F/N151K/P208A/P217A/Q86R/R169H/T345S); conditions: duplicated experiments, positive binder >40%
[12] = target: T5, HLA-A*24:02 (Homo sapiens, UniProt P04439, D101N/D140Y/D185E/E176V/E190D/F33S/G103R/G107R/I119L/I121M/I306V/K335N/L105A/L180Q/L300P/N151K/N90K/Q86E/Q94H/R106L/R138H/R89G/T104I/T345S/V100E/W191G/Y123F); conditions: duplicated experiments, positive binder >40%
[13] = target: T5, HLA-A*24:02; conditions: time points 0-8 h
[14] = target: T5, HLA-A*24:02
[15] = target: T4, HLA-A*68:01
[16] = target: T4, HLA-A*68:01; conditions: time points 0-8 h
[17] = target: T3, HLA-B*58:01; conditions: time points 0-8 h
[18] = target: T3, HLA-B*58:01
[19] = percent relative the binding of positive control peptide KYFDEHYEY
[20] = peptide titrated 10−4 to 10−9 M
[21] = percent relative the binding of positive control peptide FLPSDFFPSV
[22] = percent relative the binding of positive control peptide IAMESIVIW
[23] = percent relative the binding of positive control peptide KTKDIVNGL
[24] = percent relative the binding of positive control peptide KIQNFRVYY
[25] = percent relative the binding of positive control peptide KTGGPIYKR
[26] = percent relative the binding of positive control peptide RYLKDQQLL
[27] = percent relative the binding of positive control peptide […]

## AMASTEGNV [Rv3875_82–90]
[1]
  O-rate A*30:02 (t1/2): 150 min
[2]; [19]
  Bind C*07:01: 3%
[3]; [20]
  Aff A*30:02 (ED50): 7e-09 M
[4]
  Bind B*07:02: 11%
[5]; [20]
  Aff A*02:01 (ED50): 3e-08 M
[6]; [21]
  Bind A*02:01: 87%
[7]; [22]
  Bind B*58:01: 0%
[8]
  O-rate A*02:01 (t1/2): 60 min
[9]; [23]
  Bind A*30:01: 0%
[10]; [24]
  Bind A*30:02: 102%
[11]; [25]
  Bind A*68:01: 0%
[12]; [26]
  Bind A*24:02: 0%

## AYQGVQQKW [Rv3875_50–58]
[2]; [19]
  Bind C*07:01: 0%
[4]
  Bind B*07:02: 10%
[6]; [21]
  Bind A*02:01: 0%
[13]
  O-rate A*24:02 (t1/2): 24 min
[7]; [22]
  Bind B*58:01: 35%
[9]; [23]
  Bind A*30:01: 0%
[10]; [24]
  Bind A*30:02: 33%
[11]; [25]
  Bind A*68:01: 6%
[14]; [20]
  Aff A*24:02 (ED50): 1e-08 M
[12]; [26]
  Bind A*24:02: 60%

## GT HSWEYWG
[1]
  O-rate A*30:02 (t1/2): 132 min
[2]; [27]
  Bind C*07:01: 25%
[3]
  Aff A*30:02 (ED50): 3e-05 M
[15]
  Aff A*68:01 (ED50): 1E -05 M
[16]
  O-rate A*68:01 (t1/2): 12 min
[4]
  Bind B*07:02: 3%
[5]; […]
  Aff A*02:01 (ED50): 2E -06 M
[6]; [27]
  Bind A*02:01: 43%
[17]
  O-rate B*58:01 (t1/2): 174 min
[7]; [27]
  Bind B*58:01: 58%
[8]
  O-rate A*02:01 (t1/2): 18 min
[9]; [27]
  Bind A*30:01: 0%
[10]; [27]
  Bind A*30:02: 79%
[11]; [27]
  Bind A*68:01: 71%
[12]; [27]
  Bind A*24:02: 2%
[18]
  Aff B*58:01 (ED50): 3e-07 M

## GWDINTPAF
[2]; [27]
  Bind C*07:01: 10%
[4]
  Bind B*07:02: 22%
[6]; [27]
  Bind A*02:01: 0%
[13]
  O-rate A*24:02 (t1/2): 66 min
[7]; [27]
  Bind B*58:01: 0%
[9]; [27]
  Bind A*30:01: 11%
[10]; [27]
  Bind A*30:02: 0%
[11]; [27]
  Bind A*68:01: 5%
[14]
  Aff A*24:02 (ED50): 1E -07 M
[12]; [27]
  Bind A*24:02: 146%

## GYAGTLQNL [Rv0288_20–28m1]
[13]
  O-rate A*24:02 (t1/2): 18 min
[14]
  Aff A*24:02 (ED50): 1e-07 M
[12]; [27]
  Bind A*24:02: 68%

## KAGCQTYKW
[2]; [27]
  Bind C*07:01: 31%
[4]
  Bind B*07:02: 9%
[6]; [27]
  Bind A*02:01: 22%
[17]
  O-rate B*58:01 (t1/2): 480 min
[13]
  O-rate A*24:02 (t1/2): 114 min
[7]; [27]
  Bind B*58:01: 193%
[9]; [27]
  Bind A*30:01: 13%
[10]; [27]
  Bind A*30:02: 45%
[11]; [27]
  Bind A*68:01: 25%
[14]
  Aff A*24:02 (ED50): 7E -08 M
[12]; [27]
  Bind A*24:02: 140%
[18]
  Aff B*58:01 (ED50): 3E -08 M

## MYNYPAMLD [Rv0288_5–13m2]
[1]
  O-rate A*30:02 (t1/2): 42 min
[3]
  Aff A*30:02 (ED50): 2e-06 M
[13]
  O-rate A*24:02 (t1/2): 24 min
[10]; [27]
  Bind A*30:02: 59%
[14]
  Aff A*24:02 (ED50): 3e-08 M
[12]; [27]
  Bind A*24:02: 60%

## MYNYPTMLD [Rv0288_5–13m3]
[13]
  O-rate A*24:02 (t1/2): 30 min
[10]; [27]
  Bind A*30:02: 0%
[14]
  Aff A*24:02 (ED50): 2e-08 M
[12]; [27]
  Bind A*24:02: 76%

## MYNYPTMLG [Rv0288_5–13m1]
[13]
  O-rate A*24:02 (t1/2): 30 min
[10]; [27]
  Bind A*30:02: 23%
[14]
  Aff A*24:02 (ED50): 2e-07 M
[12]; [27]
  Bind A*24:02: 47%

## QWLSANRAV
[1]
  O-rate A*30:02 (t1/2): 72 min
[2]; [27]
  Bind C*07:01: 11%
[3]
  Aff A*30:02 (ED50): 7E -08 M
[4]
  Bind B*07:02: 25%
[6]; [27]
  Bind A*02:01: 21%
[13]
  O-rate A*24:02 (t1/2): 24 min
[7]; [27]
  Bind B*58:01: 0%
[9]; [27]
  Bind A*30:01: 39%
[10]; [27]
  Bind A*30:02: 120%
[11]; [27]
  Bind A*68:01: 13%
[14]
  Aff A*24:02 (ED50): 2e-06 M
[12]; [27]
  Bind A*24:02: 110%

## SGSEAYQGV [Rv3875_46–54]
[2]; [19]
  Bind C*07:01: 24%
[4]
  Bind B*07:02: 9%
[6]; [21]
  Bind A*02:01: 22%
[13]
  O-rate A*24:02 (t1/2): 30 min
[7]; [22]
  Bind B*58:01: 2%
[9]; [23]
  Bind A*30:01: 0%
[10]; [24]
  Bind A*30:02: 0%
[11]; [25]
  Bind A*68:01: 0%
[14]; [20]
  Aff A*24:02 (ED50): 9e-09 M
[12]; [26]
  Bind A*24:02: 54%

## TYKW ETFLT
[2]; [27]
  Bind C*07:01: 0%
[4]
  Bind B*07:02: 3%
[6]; [27]
  Bind A*02:01: 36%
[13]
  O-rate A*24:02 (t1/2): 30 min
[7]; [27]
  Bind B*58:01: 0%
[9]; [27]
  Bind A*30:01: 0%
[10]; [27]
  Bind A*30:02: 13%
[11]; [27]
  Bind A*68:01: 4%
[14]
  Aff A*24:02 (ED50): 2e-06 M
[12]; [27]
  Bind A*24:02: 118%

## VQQKWDATA [Rv3875_54–62]
[1]
  O-rate A*30:02 (t1/2): 96 min
[2]; [19]
  Bind C*07:01: 9%
[3]; [20]
  Aff A*30:02 (ED50): 6e-08 M
[4]
  Bind B*07:02: 9%
[5]; [20]
  Aff A*02:01 (ED50): 5e-09 M
[6]; [21]
  Bind A*02:01: 54%
[7]; [22]
  Bind B*58:01: 12%
[8]
  O-rate A*02:01 (t1/2): 72 min
[9]; [23]
  Bind A*30:01: 21%
[10]; [24]
  Bind A*30:02: 76%
[11]; [25]
  Bind A*68:01: 0%
[12]; [26]
  Bind A*24:02: 0%

## YWGAQLNAM
[2]; [27]
  Bind C*07:01: 0%
[4]
  Bind B*07:02: 12%
[6]; [27]
  Bind A*02:01: 11%
[13]
  O-rate A*24:02 (t1/2): 30 min
[7]; [27]
  Bind B*58:01: 0%
[9]; [27]
  Bind A*30:01: 0%
[10]; [27]
  Bind A*30:02: 63%
[11]; [27]
  Bind A*68:01: 16%
[14]
  Aff A*24:02 (ED50): 8e-09 M
[12]; [27]
  Bind A*24:02: 113%
